Results taken from patent US9029553B2, “2-anilino nicotinyl linked 2-amino benzothiazole conjugates and process for the preparation thereof” (Council of Scientific & Industrial Research, priority 2011, dated 2015).

Experiments:
502713 = assay: SRB percentage growth inhibition (NCI protocol); assay type: cell-based; conditions: Homo sapiens, 48 hrs exposure
Method: (§1) 2-Anilino nicotinyl linked 2-amino benzothiazoles conjugates of formula 4-8 have been tested against ten and eleven human cancer cell lines for 10 and 1 μM respectively derived from nine cancer types (leukemia, non-small cell lung cancer, colon cancer, CNS cancer, melanoma, ovarian cancer, renal cancer, prostate cancer and breast cancer) as per NCI protocol. For each compound, percentage of growth inhibition was calculated for individual cell lines at a minimum of two concentrations (1 and 10 μM). A protocol of 48 hrs continuous drug exposure was used, and a sulforhodamine B (SRB) protein assay was used to estimate cell viability or growth. The percentage of growth inhibition compared with the control was calculated in table 1 and table 2.

A549 = assay: SRB percentage growth inhibition (NCI protocol); assay type: cell-based; conditions: Homo sapiens, 48 hrs exposure
Method: as §1

DU145 = assay: SRB percentage growth inhibition (NCI protocol); assay type: cell-based; conditions: Homo sapiens, DU-145, 48 hrs exposure
Method: as §1

HCT-15 [1] = assay: SRB percentage growth inhibition (NCI protocol); assay type: cell-based; conditions: Homo sapiens, 48 hrs exposure
Method: as §1

HEP-2 = assay: SRB percentage growth inhibition (NCI protocol); assay type: cell-based; conditions: Homo sapiens, 48 hrs exposure
Method: as §1

Hela [2] = assay: SRB percentage growth inhibition (NCI protocol); assay type: cell-based; conditions: Homo sapiens, 48 hrs exposure
Method: as §1

IGR-OV-1 = assay: SRB percentage growth inhibition (NCI protocol); assay type: cell-based; conditions: Homo sapiens, IGROV-1, 48 hrs exposure
Method: as §1

IMR-32 = assay: SRB percentage growth inhibition (NCI protocol); assay type: cell-based; conditions: Homo sapiens, 48 hrs exposure
Method: as §1

MCF-7 [3] = assay: SRB percentage growth inhibition (NCI protocol); assay type: cell-based; conditions: Homo sapiens, MCF7, 48 hrs exposure
Method: as §1

OVCAR-5 = assay: SRB percentage growth inhibition (NCI protocol); assay type: cell-based; conditions: Homo sapiens, 48 hrs exposure
Method: as §1

PC-3 = assay: SRB percentage growth inhibition (NCI protocol); assay type: cell-based; conditions: Homo sapiens, 48 hrs exposure
Method: as §1

SK-NS-H = assay: SRB percentage growth inhibition (NCI protocol); assay type: cell-based; conditions: Homo sapiens, SK-N-SH, 48 hrs exposure
Method: as §1

SiHa [4] = assay: SRB percentage growth inhibition (NCI protocol); assay type: cell-based; conditions: Homo sapiens, 48 hrs exposure
Method: as §1

Sw-620 = assay: SRB percentage growth inhibition (NCI protocol); assay type: cell-based; conditions: Homo sapiens, 48 hrs exposure
Method: as §1

HCT-15 [5] = assay: MTT inhibition of cell proliferation; assay type: cell-based; conditions: Homo sapiens, 48 h
Excerpt: (§2) In order to determine the mode of action of cell death in cancer cells, first we explored the cytotoxic potential of different structural analogs of benzothiazoles on different human cancer cell lines. […] These compounds have limited or no cytotoxicity to cervical cancer SiHa, HeLa cells, breast cancer MCF-7 cells and colon cancer HCT-15 cells.

HL-60 = assay: MTT inhibition of cell proliferation; assay type: cell-based; conditions: Homo sapiens, 48 h
Excerpt: as §2

Hela [6] = assay: MTT inhibition of cell proliferation; assay type: cell-based; conditions: Homo sapiens, 48 h
Excerpt: as §2

MCF-7 [7] = assay: MTT inhibition of cell proliferation; assay type: cell-based; conditions: Homo sapiens, MCF7, 48 h
Excerpt: as §2

SiHa [8] = assay: MTT inhibition of cell proliferation; assay type: cell-based; conditions: Homo sapiens, 48 h
Excerpt: as §2

[9] = system: normal monkey kidney CV-1 cells; assay: MTT cytotoxicity in normal cells; assay type: cell-based; conditions: Primates
Method: These compounds were also evaluated for their cytotoxic potential in normal cells and for these purpose their IC50 value were also determine in normal monkey kidney CV-1 cells by using MTT method. The ratios of normal to cancer cells IC50 value were ranges from 10-1000 times (Table 5).

HL-60 cells [10] = assay: Cell cycle analysis (FACS) by flow cytometry; assay type: cell-based, human; conditions: 1 μM, up to 24 h
Excerpt: The damage was more apparent with compound 8 and 6 (90% and 60% DNA damaged, respectively).

HL-60 cells [11] = assay: Flow cytometric analysis of reactive oxygen species (DCFH-DA); assay type: cell-based, human; conditions: 1 μM, 24 h, HL-60, compared to control
Method: It was clear that these compounds were cytotoxic and induce apoptosis in HL-60 cells, now we have to found out the early events which were responsible for the induction of apoptosis like reactive oxygen species (ROS) or nitric oxide (NO) generation. Intracellular peroxide (ROS) in the cells was measured by DCFH-DA by using flow cytometry. Cells were incubated with tested compounds at 1 μM for 24 h in HL-60 cells and analyzed by flow cytometry after double staining with DCFH-DA (FIG. 7). Cells were analyzed for fluorescence intensity in FL1 vs. cell count. There was hardly any DCF fluorescence (ROS positive cells) in the untreated HL-60 cells, and this status remained unchanged when cells were incubated for 24 hr with compounds 7 and 8. […] Compounds 4 and 6 also induce the generation of peroxide in HL-60 cells (31 and 16% increase, respectively).

survivin = assay: Western blot of cell death targets; assay type: cell-based, human; conditions: 1 μM, 24 h, HL-60
Method: Apoptosis was further characterized by the western blot analysis. Cells were treated with tested compounds at 1 μM for 24 h and expression of key apoptotic proteins like NF-kB, survivin; PARP, Bcl-2 and HSP-90 were analyzed through western blot. Both NF-kB and survivin are highly expressed in HL-60 cells. NF-kB is a transcriptional factor regulating the expression of several genes in the cells whereas survivin is a cell cycle regulated inhibitor of apoptosis protein (IAP), mostly over expressed in most of the tumors.

[12] = system: Ehrlich Ascites Carcinoma (EAC); assay: In vivo anticancer activity, Ehrlich ascites carcinoma; design: species or system Swiss mice; conditions: for No. of deaths / toxicity to animals: EAC mice
Method: Model: Ehrlich Ascites Carcinoma (EAC)
Ehrlich ascites carcinoma (EAC) cells were collected from the peritoneal cavity of the swiss mice harbouring 8-10 days old ascitic tumor. 1×10^7 EAC cells were injected intraperitoneally in Swiss mice selected for the experiment on day 0. The next day, animals were randomized and divided into different groups. The treatment groups contained 7 animals each and control group contained 10 animals. Treatment groups were treated with different doses of test substances intraperitoneally from day 1-9. One of the treatment group received 5-fluorouracil (20 mg/kg, i.p) and it served as positive control. The tumor bearing control group was similarly administered normal saline (0.2 ml, i.p.). On day 12, animals were sacrificed and ascitic fluid was collected from peritoneal cavity of each mouse for the evaluation of tumor growth. Percent tumor growth inhibition was calculated based on the total number of tumor cells present in the peritoneal cavity as on day 12 of the experiment using the following formula.

Q: Which results are given for O=C(Nc1nc2ccc([N+](=O)[O-])cc2s1)c1cccnc1Nc1ccc(F)cc1 [Compound 6, N3-(6-nitro-1,3-benzothiazol-2-yl)-2-(4-fluoroanilino)nicotinamide]?
A: inhibition at 10 µM 502713: 66%; inhibition at 1 µM (A549; 1 μM): 27%; inhibition at 10 µM (A549; 10 μM): 18%; inhibition at 1 µM (DU145; 1 μM): 31%; inhibition at 10 µM (DU145; 10 μM): 51%; inhibition at 1 µM (HCT-15 [1]; 1 μM): 22%; inhibition at 10 µM (HCT-15 [1]; 10 μM): 55%; inhibition at 1 µM (HEP-2; 1 μM): 53%; inhibition at 10 µM (HEP-2; 10 μM): 52%; inhibition at 1 µM (Hela [2]): 40%; inhibition at 1 µM (IGR-OV-1): 25%; inhibition at 1 µM (IMR-32; 1 μM): 31%; inhibition at 10 µM (IMR-32; 10 μM): 33%; inhibition at 1 µM (MCF-7 [3]): 39%; inhibition at 1 µM (OVCAR-5; 1 μM): 27%; inhibition at 10 µM (OVCAR-5; 10 μM): 53%; inhibition at 1 µM (PC-3): 26%; inhibition at 10 µM (SK-NS-H): 63%; inhibition at 10 µM (SiHa [4]): 23%; inhibition at 1 µM (Sw-620; 1 μM): 9%; inhibition at 10 µM (Sw-620; 10 μM): 67%; IC50 (HCT-15 [5]): > 100 µM; IC50 (HL-60): 0.3 µM; IC50 (Hela [6]): 8 µM; IC50 (MCF-7 [7]): > 100 µM; IC50 (SiHa [8]): 7 µM; IC50 [9]: 15 µM; DNA damaged (sub-G0 fraction) (HL-60 cells [10]): 60%; increase in DCF positive cell population (ROS) (HL-60 cells [11]): 16%; survivin level (western blot) (survivin): highest inhibition potential; Growth Inhibition (%) ([12]; 20 mg/Kg i.p. day 1-9, read day 12): 22.18%; No. of deaths / toxicity to animals ([12]; 20 mg/Kg i.p.): 0/7; Growth Inhibition (%) ([12]; 30 mg/Kg i.p. day 1-9, read day 12): 43.11%; No. of deaths / toxicity to animals ([12]; 30 mg/Kg i.p.): 0/7; Growth Inhibition (%) ([12]; 40 mg/Kg i.p. day 1-9, read day 12): 68.11%; No. of deaths / toxicity to animals ([12]; 40 mg/Kg i.p.): 4/7 and considerable toxicity; No. of deaths / toxicity to animals ([12]; 40 mg/Kg i.p., listed as Comp 6): 4/7
